What was measured:
KRAS Wild Type = KRAS Wild Type (Homo sapiens (Human), UniProt P01116); experiment: SPR binding affinity and kinetics, GTPγS-loaded KRAS Wild Type; conditions: GTPγS loaded protein, geomean
Text: (§1) No additional regeneration was used.
(§2) Compound dissociation was monitored for at least 3600 seconds. […] No additional regeneration was used.
(§3) The adequateness of the fit was judged by c2 values and the randomness of residue distribution.

KRAS G12D = KRAS G12D (Homo sapiens (Human), UniProt P01116, G12D); experiment: SPR binding affinity and kinetics, GTPγS-loaded KRAS G12D; conditions: GTPγS loaded protein, geomean
Text: as §1, §2, §3

KRAS G12C = KRAS G12C (Homo sapiens (Human), UniProt P01116, G12C); experiment: SPR binding affinity and kinetics, GTPγS-loaded KRAS G12C; conditions: GTPγS loaded protein, geomean
Text: as §1, §2, §3

KRAS G12V = KRAS G12V (Homo sapiens (Human), UniProt P01116, G12V); experiment: SPR binding affinity and kinetics, GTPγS-loaded KRAS G12V; conditions: GTPγS loaded protein, geomean
Text: as §1, §2, §3

[1] = tested on: H358 (non-small cell lung cancer cell line); experiment: KRAS Cell Titer Glo (CTG) cell proliferation assay, H358; format: cell-based; conditions: Homo sapiens, NCI-H358, 168 h; H358 cells, 7-day CTG, geomean IC50
Text: (§4) The CellTiter-Glo® (CTG) Luminescent Cell Viability Assay is a homogeneous method of determining the number of viable cells in culture based on quantitation of the ATP present, an indicator of metabolically active cells. The CTG is designed for use with multi-well formats, making it ideal for automated high-throughput screening (HTS), cell proliferation and cytotoxicity assays. The homogeneous assay procedure involves adding the single reagent (CellTiter-Glo® Reagent) directly to cells cultured in serum-supplemented medium. Cell washing, removal of medium and multiple pipetting steps are not required. The system detects as few as 15 cells per well in a 384-well format in 10 minutes after adding reagent and mixing.
(§5) Cells are grown in humidified 5% CO2 incubator at 37° C. using the culture conditions outlined below. All cell culture media reagents were purchased from Gibco. Cell lines purchased from ATCC: H358 (non-small cell lung cancer cell line), SW620 (colorectal cancer cell line), PANC08.13 (RPM11640+10% FBS+10 units/mL Insulin, pancreatic cancer cell line). Test and control compounds are dispensed as nanoliter drops according to desired final concentrations in 0.1% DMSO using Echo Acoustic Dispenser onto 384 assay plates (Corning, Cat #3764) prior to cell seeding. Cells were seeded in 40 μL volume per well at the following cell densities (cells per well): H358 (300), SW620 (750), PANC 08.13 (600). Cells are incubated in the presence of compound for 7-days. Viability is determined on Day 7 using CellTiter-Glo® (CTG) Luminescent Cell Viability Assay (Promega). CTG is added to a […] per well and incubated at room temperature for 15 minutes before luminescence is captured using an EnVision Reader with LUM384 US protocol. Data is analyzed using Activity Base to determine compound response and will be represented either as a percent effect (PCTEFF) or percent control (PCTOCTL) as described: Zero percent effect control (ZPE) (Negative control)—100% DMSO. Hundred percent effect (HPE) (Positive control)—1 uM Trametinib (GSK1120212, MEK inhibitor) (4 nl of 10 mM and 36 nl of DMSO per well). The following equations/nomenclature are used (% Effect; PCTEFF) and (% of Control; PCTOCTL): PCTEFF: 100*(Raw_Data_Value−HPE/ZPE−HPE), PCTOCTL: 100*Raw_Data_Value/User_Defined_Array), where the User_Defined_Array is either summarized HPE or ZPE.
(§6) Cells with “nd” indicate compound not tested in that particular assay at time of writing. It is to be understood that the geomean IC50 data may change slightly over time with increasing repeat data (ie: increasing n #).

[2] = tested on: SW620 (colorectal cancer cell line); experiment: KRAS Cell Titer Glo (CTG) cell proliferation assay, SW620; format: cell-based; conditions: Homo sapiens, SW-620, 168 h; SW620 cells, 7-day CTG, geomean IC50
Text: as §4, §5, §6

[3] = tested on: PANC08.13 (pancreatic cancer cell line); experiment: KRAS Cell Titer Glo (CTG) cell proliferation assay, PANC08.13; format: cell-based; conditions: Homo sapiens, PANC-08-13, 168 h; PANC08.13 cells, 7-day CTG, geomean IC50
Text: as §4, §5, §6

KRAS Wild Type, sequence (P01116 other isoform, or with tags, fused parts or gaps): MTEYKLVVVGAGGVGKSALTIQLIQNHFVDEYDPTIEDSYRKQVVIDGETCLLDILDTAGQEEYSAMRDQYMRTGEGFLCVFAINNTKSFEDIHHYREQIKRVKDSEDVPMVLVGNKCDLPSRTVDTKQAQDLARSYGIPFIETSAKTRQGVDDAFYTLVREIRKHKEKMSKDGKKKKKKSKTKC
KRAS G12C, sequence (P01116 other isoform, or with tags, fused parts or gaps G12C): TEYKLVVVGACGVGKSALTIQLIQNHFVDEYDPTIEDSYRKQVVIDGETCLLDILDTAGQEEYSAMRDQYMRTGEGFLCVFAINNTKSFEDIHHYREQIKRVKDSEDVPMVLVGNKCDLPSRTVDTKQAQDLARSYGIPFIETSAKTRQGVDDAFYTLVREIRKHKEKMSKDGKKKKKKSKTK
KRAS G12V, sequence (P01116 other isoform, or with tags, fused parts or gaps G12V): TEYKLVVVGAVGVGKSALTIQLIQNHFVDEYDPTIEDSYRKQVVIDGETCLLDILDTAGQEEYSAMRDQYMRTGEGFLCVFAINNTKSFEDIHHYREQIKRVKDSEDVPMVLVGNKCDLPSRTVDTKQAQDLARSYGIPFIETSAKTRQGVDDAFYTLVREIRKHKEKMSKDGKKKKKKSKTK
KRAS G12D, sequence (P01116 other isoform, or with tags, fused parts or gaps G12D): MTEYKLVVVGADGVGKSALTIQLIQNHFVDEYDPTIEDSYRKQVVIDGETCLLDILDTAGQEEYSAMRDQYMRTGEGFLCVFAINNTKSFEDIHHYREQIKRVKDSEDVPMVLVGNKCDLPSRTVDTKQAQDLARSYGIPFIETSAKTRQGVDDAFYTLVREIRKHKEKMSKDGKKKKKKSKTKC

Row | Kd (KRAS Wild Type) [nM] | Kd (KRAS G12D) [nM] | Kd (KRAS G12C) [nM] | Kd (KRAS G12V) [nM] | IC50 [1] [nM] | IC50 [2] [nM] | IC50 [3] [nM] | SMILES
1 | 4 | 3 | 2 | 2 | 41 | 22 | 13 | C=C1CN2C[C@H](O)C[C@@]2(COc2nc3c4c(nc(-c5c(C6CC6)c(Cl)cc6[nH]ncc56)c(F)c4n2)OC[C@@H]2COCCCN32)C1 [Example 25, (2R,7aR)-7a-({[(8aS)-5-(6-chloro-5-cyclopropyl-1H-indazol-4-yl)-4-fluoro-8a,9,12,13-tetrahydro-8H,11H-7,10-dioxa-1,3,6,13a-tetraazanaphtho[1,8-ab]heptalen-2-yl]oxy}methyl)-6-methylidenehexahydro-1H-pyrrolizin-2-ol]
2 | 9 | 4 | 3 | 6 | 72 | 74 | 9 | C/C=C1/CN2CCC[C@@]2(COc2nc3c4c(nc(-c5c(C6CC6)c(Cl)cc6[nH]ncc56)c(F)c4n2)OC[C@@H]2COCCCN32)C1 [Example 27, (8aS)-5-(6-chloro-5-cyclopropyl-1H-indazol-4-yl)-2-{[(2E,7aS)-2-ethylidenetetrahydro-1H-pyrrolizin-7a(5H)-yl]methoxy}-4-fluoro-8a,9,12,13-tetrahydro-8H,11H-7,10-dioxa-1,3,6,13a-tetraazanaphtho[1,8-ab]heptalene]
3 | 46 | 19 | 39 | 36 | 768 | 1420 | 161 | C=C1CN2CCC[C@@]2(COc2nc3c4c(nc(-c5c6c(cc7[nH]ncc57)CCC[C@@H]6C)c(F)c4n2)OC[C@@H]2COCCCN32)C1 [Example 32, (8aS)-4-fluoro-2-{[(7aS)-2-methylidenetetrahydro-1H-pyrrolizin-7a(5H)-yl]methoxy}-5-[(5S)-5-methyl-5,6,7,8-tetrahydro-1H-benzo[f]indazol-4-yl]-8a,9,12,13-tetrahydro-8H,11H-7,10-dioxa-1,3,6,13a-tetraazanaphtho[1,8-ab]heptalene]
4 | 8 | 6 | 6 | 6 | 58 | 103 | 18 | C=C1CN2CCC[C@@]2(COc2nc3c4c(nc(-c5c(CC)c(Cl)cc6[nH]ncc56)c(F)c4n2)OC[C@@H]2COCCCN32)C1 [Example 33, (8aS)-5-(6-chloro-5-ethyl-1H-indazol-4-yl)-4-fluoro-2-{[(7aS)-2-methylidenetetrahydro-1H-pyrrolizin-7a(5H)-yl]methoxy}-8a,9,12,13-tetrahydro-8H,11H-7,10-dioxa-1,3,6,13a-tetraazanaphtho[1,8-ab]heptalene]
5 | > 10000 | > 10000 | > 10000 | > 10000 | > 9990 | > 9990 | 9350 | C=C1CN2CCC[C@@]2(COc2nc3c4c(nc(-c5cccc6[nH]ncc56)c(F)c4n2)OC[C@@H]2COCCCN32)C1 [Example 34, (8aS)-4-fluoro-5-(1H-indazol-4-yl)-2-{[(7aS)-2-methylidenetetrahydro-1H-pyrrolizin-7a(5H)-yl]methoxy}-8a,9,12,13-tetrahydro-8H,11H-7,10-dioxa-1,3,6,13a-tetraazanaphtho[1,8-ab]heptalene]
6 | 11 | 8 | 12 | 12 | 126 | 49 | 10 | Fc1c(-c2c(C3CC3)c(Cl)cc3[nH]ncc23)nc2c3c(nc(OC[C@@]45C[C@@H](F)CN4CC4(CC4)C5)nc13)N1CCCOC[C@H]1CO2 [Example 35, (8aS)-2-{[(6′R,7′aR)-6′-fluorodihydro-1′H,3′H-spiro[cyclopropane-1,2′-pyrrolizin]-7′a(5′H)-yl]methoxy}-5-(6-chloro-5-cyclopropyl-1H-indazol-4-yl)-4-fluoro-8a,9,12,13-tetrahydro-8H,11H-7,10-dioxa-1,3,6,13a-tetraazanaphtho[1,8-ab]heptalene]

Source: patent publication US20250034173A1, “PYRIDO[4,3-D]PYRIMIDINE COMPOUNDS” (PFIZER INC., priority 2023, published 2025)
